The results in this text go back to patent publication US6300331A, “Naphthalimidobenzamide derivatives” (Taiho Pharmaceutical Co., Ltd., priority 1998, dated 2001).

For assay [1], the system named is region abundant in guanine and cytosine. The assay can be described thus: interaction with DNA region abundant in guanine and cytosine. The assay is classed as binding. From the text: (§1) The naphthalimidobenzamide derivatives (1) or salts thereof according to the present invention are compounds synthesized to have a high affinity with DNA and base sequence selectivity. As a result of various investigations, it has been confirmed that the compounds of the present invention each has a high affinity with DNA based on the results of various tests including a test using ethidium bromide displacement assay or the like. It has also been confirmed that they have stronger affinities with respective base sequence regions.

The next assay has as its system KB cells. The assay can be described thus: Cytotoxicity against KB cells (crystal violet dying method). The settings on record: Homo sapiens, read-out: Cytotoxicity [IC50 (μM)]. It is filed as cell-based. On the procedure:
Test 1 Cytotoxicity against KB cells
The residue was re-suspended in an MEM medium containing 10% fetal bovine serum. Then, an equivalent amount of a 0.2% trypan blue solution was added to a portion of the cell suspension, followed by mixing. The number of living cells which had not been dyed with the trypan blue was counted by a hemocytometer and the suspension was diluted and adjusted with the above-described culture medium to give a cell concentration of 1×10^4 cells/ml. Each well of a 96-well plate was inoculated with a 100-μl portion of the resulting suspension, in other words, was inoculated to give a concentration of 1×10^3 cells/well.
To the cells cultured in a CO2 incubator for 24 hours after the inoculation was added 100 μl/well of a medicament solution, followed by culturing for 72 hours. To a control was added 100 μl of an MEM medium.
The cytotoxicity of the medicament was determined from a change in the number of the cells by using the crystal violet dying method.
After washing the plate with water, 100 μl/well of a 0.05% crystal violet solution dissolved in 20% methanol was added to dye the cells therewith for about 15 minutes. The plate was washed to remove the unbound crystal violet, followed by the addition of 100 μl/well of 0.05M NaH2 PO4 /ethanol (1:1 v/v), whereby the crystal violet bound to the cellular protein was extracted.

For assay [2], the system named is region abundant in adenine and thymine. As to the kind of experiment: interaction with DNA region abundant in adenine and thymine. The assay is classed as binding.
Description: as §1

In assay [3] the test system is human skin cancer strains LOX. The assay can be described thus: antitumor test in nude mouse subcutaneously transplanted with human skin cancer strains LOX. It is filed as in vivo.
Assay [4] concerns human pancreatic cancer strains PAN6. The assay can be described thus: antitumor test in nude mouse subcutaneously transplanted with human pancreatic cancer strains PAN6. The assay is classed as in vivo.
In assay [5] the test system is human breast cancer strains MX1. The assay can be described thus: antitumor test in nude mouse subcutaneously transplanted with human breast cancer strains MX1. It is filed as in vivo.
Assay [6] deals with human gastric cancer strains AZ521. As to the kind of experiment: antitumor test in nude mouse subcutaneously transplanted with human gastric cancer strains AZ521. It is filed as in vivo.
[7] abbreviates: KB cells, 72 hours, 50% proliferation inhibition.

Structures are written as SMILES. Where a name gives a salt, the structure may show the parent alone. Read-outs that look alike come from different tables or passages of the source.

Regarding `O=C(NCCNCCN1C(=O)c2cccc3cc([N+](=O)[O-])cc(c23)C1=O)c1cc(C(=O)NCCNCCN2C(=O)c3cccc4cc([N+](=O)[O-])cc(c34)C2=O)cc(N2C(=O)c3cccc4cc([N+](=O)[O-])cc(c34)C2=O)c1` [Example 4, 1,3-bis[N-[2-[[2-(3-nitro-1,8-naphthalimido)ethyl]amino]ethyl]carbamoyl]-5-(3-nitro-1,8-naphthalimido)benzene dihydrochloride], the “interaction with a region abundant in guanine and cytosine” value in assay [1] was “strong interaction”. For the same compound, the IC50 in the assay on KB cells (setting [7]) amounted to 0.048 µM. On to `Cn1cc(NC(=O)c2cc(NC=O)cn2C)cc1C(=O)NCCNCCNC(=O)c1cc(C(=O)NCCNCCNC(=O)c2cc(NC(=O)c3cc(NC=O)cn3C)cn2C)cc(N2C(=O)c3cccc4cc([N+](=O)[O-])cc(c34)C2=O)c1` [Example 30, 1,3-bis[N-[2-[[2-[4-(4-formamido-1-methylpyrrole-2-carbonylamino)-1-methylpyrrole-2-carbonylamino]ethyl]amino]ethyl]carbamoyl]-5-(3-nitro-1,8-naphthalimido)benzene dihydrochloride], for which, in assay [2], the “interaction with a region abundant in adenine and thymine” value is recorded as “strong interaction”.

With `CN(C)CCCNC(=O)c1cc(C(=O)NCCNCCN2C(=O)c3cccc4cc([N+](=O)[O-])cc(c34)C2=O)cc(N2C(=O)c3cccc4cc([N+](=O)[O-])cc(c34)C2=O)c1` [Example 41, 1-[N-(3-dimethylaminopropyl)carbamoyl]-3-(3-nitro-1,8-naphthalimido)-5-[N-[2-[[2-(3-nitro-1,8-naphthalimido)ethyl]amino]ethyl]carbamoyl]benzene hydrochloride], in the assay on KB cells (setting [7]), the IC50 is 3.1 µM. The same measure, in the same setting: the figure for `CN(C)CCNC(=O)c1cc(C(=O)NCCNCCN2C(=O)c3cccc4cc([N+](=O)[O-])cc(c34)C2=O)cc(N2C(=O)c3cccc4cc([N+](=O)[O-])cc(c34)C2=O)c1` [Example 42, 1-[N-(2-dimethylaminoethyl)carbamoyl]-3-(3-nitro-1,8-naphthalimido)-5-[N-[2-[[2-(3-nitro-1,8-naphthalimido)ethyl]amino]ethyl]carbamoyl]benzene hydrochloride] is 0.15 µM; for `CNC(=O)c1cc(C(=O)NCCNCCN2C(=O)c3cccc4cc([N+](=O)[O-])cc(c34)C2=O)cc(N2C(=O)c3cccc4cc([N+](=O)[O-])cc(c34)C2=O)c1` [Example 43, 1-methylcarbamoyl-3-(3-nitro-1,8-naphthalimido)-5-[N-[2-[[2-(3-nitro-1,8-naphthalimido)ethyl]amino]ethyl]carbamoyl]benzene hydrochloride] it is 0.025 µM; for `O=C(NCCNCCN1C(=O)c2cccc3cc([N+](=O)[O-])cc(c23)C1=O)c1cc(C(=O)NCCN2CCCC2)cc(N2C(=O)c3cccc4cc([N+](=O)[O-])cc(c34)C2=O)c1` [Example 45, 1-(3-nitro-1,8-naphthalimido)-3-[N-[2-[[2-(3-nitro-1,8-naphthalimido)ethyl]amino]ethyl]carbamoyl]-5-[N-(2-pyrrolidinoethyl)carbamoyl]benzene hydrochloride] it is 0.066 µM. Regarding `O=C(NCCNCCN1C(=O)c2cccc3cc([N+](=O)[O-])cc(c23)C1=O)c1cc(C(=O)NCCN2CCCCC2)cc(N2C(=O)c3cccc4cc([N+](=O)[O-])cc(c34)C2=O)c1` [Example 46, 1-(3-nitro-1,8-naphthalimido)-3-[N-[2-[[2-(3-nitro-1,8-naphthalimido)ethyl]amino]ethyl]carbamoyl]-5-[N-(2-piperidinoethyl)carbamoyl]benzene hydrochloride], the “inhibitory effects against tumor proliferation” value in assay [3] is given as 96.2%; in assay [4] it was 59.8%; in assay [5], 71.8%; in assay [6], 79.5%. The IC50 in the assay on KB cells (KB, 72 h) was found to be 0.053 µM.

With `O=C(NCCNCCN1C(=O)c2cccc3cccc(c23)C1=O)c1cc(C(=O)NCCN2CCCCC2)cc(N2C(=O)c3cccc4cc([N+](=O)[O-])cc(c34)C2=O)c1` [Example 47, 1-[N-[2-[[2-(1,8-naphthalimido)ethyl]amino]ethyl]carbamoyl]-3-(3-nitro-1,8-naphthalimido)-5-[N-(2-piperidinoethyl)carbamoyl]benzene hydrochloride], in the assay with KB cells (setting [7]), the IC50 was determined as 0.0035 µM.

`O=C(NCCNCCN1C(=O)c2cccc3cc([N+](=O)[O-])cc(c23)C1=O)c1cc(C(=O)N2CCOCC2)cc(N2C(=O)c3cccc4cc([N+](=O)[O-])cc(c34)C2=O)c1` [Example 48, 1-morpholinocarbonyl-3-(3-nitro-1,8-naphthalimido)-5-[N-[2-[[2-(3-nitro-1,8-naphthalimido)ethyl]amino]ethyl]carbamoyl]benzene hydrochloride]: the IC50 in the assay on KB cells (setting [7]) turned out to be 0.052 µM. On to `CN1CCN(C(=O)c2cc(C(=O)NCCNCCN3C(=O)c4cccc5cc([N+](=O)[O-])cc(c45)C3=O)cc(N3C(=O)c4cccc5cc([N+](=O)[O-])cc(c45)C3=O)c2)CC1` [Example 49, 1-(4-methylpiperazino)carbonyl-3-(3-nitro-1,8-naphthalimido)-5-[N-[2-[[2-(3-nitro-1,8-naphthalimido)ethyl]amino]ethyl]carbamoyl]benzene hydrochloride], for which the IC50 in the assay on KB cells (setting [7]) was found to be 0.035 µM.

As to `CN1CCN(C(=O)c2cc(C(=O)NCCNCCN3C(=O)c4cccc5cc([N+](=O)[O-])cc(c45)C3=O)cc(N3C(=O)c4cccc5cccc(c45)C3=O)c2)CC1` [Example 50, 1-(4-methylpiperazino)carbonyl-3-(1,8-naphthalimido)-5-[N-[2-[[2-(3-nitro-1,8-naphthalimido)ethyl]amino]ethyl]carbamoyl]benzene hydrochloride], in the assay on KB cells (setting [7]), the IC50 stood at 0.022 µM. Same read-out and setting: as for `CN1CCN(C(=O)c2cc(C(=O)NCCNCCN3C(=O)c4cccc5cccc(c45)C3=O)cc(N3C(=O)c4cccc5cccc(c45)C3=O)c2)CC1` [Example 51, 1-(4-methylpiperazino)carbonyl-3-(1,8-naphthalimido)-5-[N-[2-[[2-(1,8-naphthalimido)ethyl]amino]ethyl]carbamoyl]benzene hydrochloride], the figure is 0.025 µM; as for `CCN1CCN(C(=O)c2cc(C(=O)NCCNCCN3C(=O)c4cccc5cccc(c45)C3=O)cc(N3C(=O)c4cccc5cc([N+](=O)[O-])cc(c45)C3=O)c2)CC1` [Example 53, 1-(4-ethylpiperazino)carbonyl-3-[N-[2-[[2-(1,8-naphthalimido)ethyl]amino]ethyl]carbamoyl]-5-(3-nitro-1,8-naphthalimido)benzene hydrochloride], 0.013 µM.

With `O=C(NCCNCCN1C(=O)c2cccc3cc([N+](=O)[O-])cc(c23)C1=O)c1cc(C(=O)N2CCC(N3CCCCC3)CC2)cc(N2C(=O)c3cccc4cc([N+](=O)[O-])cc(c34)C2=O)c1` [Example 55, 1-(3-nitro-1,8-naphthalimido)-3-[N-[2-[[2-(3-nitro-1,8-naphthalimido)ethyl]amino]ethyl]carbamoyl]-5-(4-piperidinopiperidino)carbonylbenzene hydrochloride], the IC50 in the assay with KB cells (setting [7]) stood at 0.11 µM. The same measure, in the same setting: the figure for `CN1CCN(C(=O)c2cc(C(=O)NCCCNCCN3C(=O)c4cccc5cc([N+](=O)[O-])cc(c45)C3=O)cc(N3C(=O)c4cccc5cc([N+](=O)[O-])cc(c45)C3=O)c2)CC1` [Example 56 (A), 1-(4-methylpiperazino)carbonyl-3-(3-nitro-1,8-naphthalimido)-5-[N-[3-[[2-(3-nitro-1,8-naphthalimido)ethyl]amino]propyl]carbamoyl]benzene hydrochloride] is 0.039 µM; for `CN1CCN(C(=O)c2cc(C(=O)NCCNCCCN3C(=O)c4cccc5cc([N+](=O)[O-])cc(c45)C3=O)cc(N3C(=O)c4cccc5cc([N+](=O)[O-])cc(c45)C3=O)c2)CC1` [Example 56 (B), 1-(4-methylpiperazino)carbonyl-3-(3-nitro-1,8-naphthalimido)-5-[N-[2-[[3-(3-nitro-1,8-naphthalimido)propyl]amino]ethyl]carbamoyl]benzene hydrochloride] it is 0.12 µM.

As a reminder, the IC50 is the midpoint of a concentration-inhibition curve.
